Measured values published in the NIST ThermoML archive (doi:10.1016/j.tca.2015.03.023).
Numbers after ± are expanded uncertainties.

What was measured:
[1] = 298.15 K, Liquid
[2] = mn = molality of the nth substance listed, in mol/kg; conditions: 298.15 K, 100 kPa, Liquid; for viscosity: Capillary tube (Ostwald / Ubbelohde) method; for speed of sound: Frequency=1 MHz, Linear variable-path acoustic interferometer; for mass density: Vibrating tube method; for molar conductivity: Alternating current cell with electrodes

CNC=O [N-methylformamide]
speed of sound ([1]; 100 kPa, Frequency=1 MHz, Linear variable-path acoustic interferometer): 1430.3 ± 2.5 m/s
viscosity ([1]; 101.33 kPa, Capillary tube (Ostwald / Ubbelohde) method): 1.653 ± 0.034 mPa·s
mass density ([1]; 101.33 kPa, Vibrating tube method): 999.12 ± 1 kg/m3

CNC=O [N-methylformamide] + [K+].[O-][Cl+3]([O-])([O-])[O-]
viscosity ([2]; m2 = 0): 1.653 ± 0.034 mPa·s
speed of sound ([2]; m2 = 0): 1430.3 ± 2.5 m/s
mass density ([2]; m2 = 0): 999.12 ± 1 kg/m3

CNC=O [N-methylformamide] + [Li+].[O-][Cl+3]([O-])([O-])[O-]
viscosity ([2]; m2 = 0): 1.653 ± 0.034 mPa·s
speed of sound ([2]; m2 = 0): 1430.3 ± 2.5 m/s
mass density ([2]; m2 = 0): 999.12 ± 1 kg/m3

CNC=O [N-methylformamide] + [Na+].[O-][Cl+3]([O-])([O-])[O-]
viscosity ([2]; m2 = 0): 1.653 ± 0.034 mPa·s
speed of sound ([2]; m2 = 0): 1430.3 ± 2.5 m/s
mass density ([2]; m2 = 0): 999.12 ± 1 kg/m3

[Li+].[O-][Cl+3]([O-])([O-])[O-] [lithium perchlorate] + CNC=O
molar conductivity ([2]; m1 = 0.0001214): 0.000939 ± 0.0002 S·m2/mol
molar conductivity ([2]; m1 = 0.0001462): 0.000926 ± 0.0002 S·m2/mol
molar conductivity ([2]; m1 = 0.0001817): 0.000907 ± 0.0002 S·m2/mol
molar conductivity ([2]; m1 = 0.0002036): 0.000895 ± 0.0002 S·m2/mol
molar conductivity ([2]; m1 = 0.0002283): 0.000879 ± 0.0002 S·m2/mol
molar conductivity ([2]; m1 = 0.0002525): 0.000875 ± 0.0002 S·m2/mol
molar conductivity ([2]; m1 = 0.0002752): 0.000854 ± 0.0002 S·m2/mol
molar conductivity ([2]; m1 = 0.0003): 0.000841 ± 0.0002 S·m2/mol
molar conductivity ([2]; m1 = 0.0003244): 0.000831 ± 0.0002 S·m2/mol
molar conductivity ([2]; m1 = 0.0003557): 0.000815 ± 0.0002 S·m2/mol
molar conductivity ([2]; m1 = 0.0003756): 0.000809 ± 0.0002 S·m2/mol
molar conductivity ([2]; m1 = 0.0004004): 0.000795 ± 0.0002 S·m2/mol
molar conductivity ([2]; m1 = 0.0004406): 0.000783 ± 0.0002 S·m2/mol
molar conductivity ([2]; m1 = 0.0004687): 0.000769 ± 0.0002 S·m2/mol
viscosity ([2]; m1 = 0.015): 1.668 ± 0.035 mPa·s
viscosity ([2]; m1 = 0.0301): 1.682 ± 0.035 mPa·s
viscosity ([2]; m1 = 0.0452): 1.696 ± 0.035 mPa·s
viscosity ([2]; m1 = 0.0603): 1.71 ± 0.036 mPa·s
viscosity ([2]; m1 = 0.0755): 1.725 ± 0.036 mPa·s
viscosity ([2]; m1 = 0.0907): 1.738 ± 0.036 mPa·s
speed of sound ([2]; m1 = 0.015): 1433.8 ± 2.5 m/s
speed of sound ([2]; m1 = 0.0301): 1447.3 ± 2.5 m/s
speed of sound ([2]; m1 = 0.0452): 1468.1 ± 2.5 m/s
speed of sound ([2]; m1 = 0.0604): 1494.8 ± 2.5 m/s
speed of sound ([2]; m1 = 0.0755): 1529.4 ± 2.6 m/s
speed of sound ([2]; m1 = 0.0907): 1569.9 ± 2.6 m/s
mass density ([2]; m1 = 0.015): 999.44 ± 1 kg/m3
mass density ([2]; m1 = 0.0301): 999.85 ± 1 kg/m3
mass density ([2]; m1 = 0.0452): 1000.33 ± 1 kg/m3
mass density ([2]; m1 = 0.0603): 1000.86 ± 1 kg/m3
mass density ([2]; m1 = 0.0755): 1001.44 ± 1 kg/m3
mass density ([2]; m1 = 0.0907): 1002.06 ± 1 kg/m3

[K+].[O-][Cl+3]([O-])([O-])[O-] [potassium perchlorate] + CNC=O
molar conductivity ([2]; m1 = 0.0004439): 0.00119 ± 0.0002 S·m2/mol
molar conductivity ([2]; m1 = 0.0005285): 0.00117 ± 0.0002 S·m2/mol
molar conductivity ([2]; m1 = 0.0006265): 0.00115 ± 0.0002 S·m2/mol
molar conductivity ([2]; m1 = 0.0006838): 0.00113 ± 0.0002 S·m2/mol
molar conductivity ([2]; m1 = 0.000722): 0.00113 ± 0.0002 S·m2/mol
molar conductivity ([2]; m1 = 0.0007846): 0.00112 ± 0.0002 S·m2/mol
molar conductivity ([2]; m1 = 0.0008474): 0.00112 ± 0.0002 S·m2/mol
molar conductivity ([2]; m1 = 0.0009126): 0.0011 ± 0.0002 S·m2/mol
molar conductivity ([2]; m1 = 0.0009685): 0.00109 ± 0.0002 S·m2/mol
molar conductivity ([2]; m1 = 0.001057): 0.00108 ± 0.0002 S·m2/mol
molar conductivity ([2]; m1 = 0.001149): 0.00106 ± 0.0002 S·m2/mol
molar conductivity ([2]; m1 = 0.001216): 0.00105 ± 0.0002 S·m2/mol
molar conductivity ([2]; m1 = 0.00129): 0.00103 ± 0.0002 S·m2/mol
molar conductivity ([2]; m1 = 0.001359): 0.00103 ± 0.0002 S·m2/mol
viscosity ([2]; m1 = 0.0153): 1.66 ± 0.035 mPa·s
viscosity ([2]; m1 = 0.0304): 1.665 ± 0.035 mPa·s
viscosity ([2]; m1 = 0.0457): 1.669 ± 0.035 mPa·s
viscosity ([2]; m1 = 0.0609): 1.674 ± 0.035 mPa·s
viscosity ([2]; m1 = 0.0759): 1.677 ± 0.035 mPa·s
viscosity ([2]; m1 = 0.0911): 1.681 ± 0.035 mPa·s
speed of sound ([2]; m1 = 0.0153): 1435.8 ± 2.5 m/s
speed of sound ([2]; m1 = 0.0304): 1449.9 ± 2.5 m/s
speed of sound ([2]; m1 = 0.0457): 1471.8 ± 2.5 m/s
speed of sound ([2]; m1 = 0.0609): 1499.7 ± 2.5 m/s
speed of sound ([2]; m1 = 0.0759): 1533.7 ± 2.6 m/s
speed of sound ([2]; m1 = 0.0911): 1577.6 ± 2.6 m/s
mass density ([2]; m1 = 0.0153): 1000.04 ± 1 kg/m3
mass density ([2]; m1 = 0.0304): 1001.02 ± 1 kg/m3
mass density ([2]; m1 = 0.0457): 1002.07 ± 1 kg/m3
mass density ([2]; m1 = 0.0609): 1003.15 ± 1 kg/m3
mass density ([2]; m1 = 0.0759): 1004.25 ± 1 kg/m3
mass density ([2]; m1 = 0.0911): 1005.39 ± 1 kg/m3

[Na+].[O-][Cl+3]([O-])([O-])[O-] [sodium perchlorate] + CNC=O
molar conductivity ([2]; m1 = 0.0001833): 0.00113 ± 0.0002 S·m2/mol
molar conductivity ([2]; m1 = 0.0002554): 0.00111 ± 0.0002 S·m2/mol
molar conductivity ([2]; m1 = 0.0003247): 0.00109 ± 0.0002 S·m2/mol
molar conductivity ([2]; m1 = 0.0003795): 0.00107 ± 0.0002 S·m2/mol
molar conductivity ([2]; m1 = 0.0004397): 0.00105 ± 0.0002 S·m2/mol
molar conductivity ([2]; m1 = 0.0005067): 0.00103 ± 0.0002 S·m2/mol
molar conductivity ([2]; m1 = 0.0005588): 0.00101 ± 0.0002 S·m2/mol
molar conductivity ([2]; m1 = 0.000621): 0.00099 ± 0.0002 S·m2/mol
molar conductivity ([2]; m1 = 0.0006765): 0.000978 ± 0.0002 S·m2/mol
molar conductivity ([2]; m1 = 0.0007431): 0.000963 ± 0.0002 S·m2/mol
molar conductivity ([2]; m1 = 0.0007846): 0.000956 ± 0.0002 S·m2/mol
molar conductivity ([2]; m1 = 0.000822): 0.000947 ± 0.0002 S·m2/mol
molar conductivity ([2]; m1 = 0.0008833): 0.000925 ± 0.0002 S·m2/mol
molar conductivity ([2]; m1 = 0.0009622): 0.000906 ± 0.0002 S·m2/mol
viscosity ([2]; m1 = 0.0145): 1.664 ± 0.035 mPa·s
viscosity ([2]; m1 = 0.0298): 1.674 ± 0.035 mPa·s
viscosity ([2]; m1 = 0.0448): 1.683 ± 0.035 mPa·s
viscosity ([2]; m1 = 0.0599): 1.692 ± 0.035 mPa·s
viscosity ([2]; m1 = 0.0751): 1.702 ± 0.035 mPa·s
viscosity ([2]; m1 = 0.0902): 1.711 ± 0.036 mPa·s
speed of sound ([2]; m1 = 0.0145): 1434.9 ± 2.5 m/s
speed of sound ([2]; m1 = 0.0298): 1449.6 ± 2.5 m/s
speed of sound ([2]; m1 = 0.0448): 1470.8 ± 2.5 m/s
speed of sound ([2]; m1 = 0.0599): 1499.1 ± 2.5 m/s
speed of sound ([2]; m1 = 0.0751): 1534.9 ± 2.6 m/s
speed of sound ([2]; m1 = 0.0902): 1576.7 ± 2.6 m/s
mass density ([2]; m1 = 0.0145): 999.72 ± 1 kg/m3
mass density ([2]; m1 = 0.0298): 1000.43 ± 1 kg/m3
mass density ([2]; m1 = 0.0448): 1001.19 ± 1 kg/m3
mass density ([2]; m1 = 0.0599): 1001.99 ± 1 kg/m3
mass density ([2]; m1 = 0.0751): 1002.84 ± 1 kg/m3
mass density ([2]; m1 = 0.0902): 1003.73 ± 1 kg/m3
